Measured values taken from patent publication US12077503B2, “Substituted cyclic amides and their use as herbicides” (FMC CORPORATION, priority 2015, dated 2024).

Columns and labels:
Type in all cases: in vivo
[1] = tested on: giant foxtail (Setaria faberi); test: Test G Post-Emergence Protocol; conditions: Setaria faberi, post-emergence, 312 h; for pest or weed control at 15.625 g/ha: 15.625 g ai/ha, evaluated after 13 days (100=total damage to plant; 0=no damage to plant), read-out: Foxtail, Giant damage rating; for pest or weed control at 62.5 g/ha: 62.5 g ai/ha, read-out: Foxtail, Giant damage rating (100=total damage to plant; 0=no damage to plant); for pest or weed control at 62.5 g/ha / pest or weed control at 250 g/ha: evaluated after 13 days; for pest or weed control at 250 g/ha: 250 g ai/ha, read-out: damage to plant, Foxtail, Giant (100=total damage to plant; 0=no damage to plant)
Outline: (§1)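 Scores run 0 (no damage) to 100 (total damage) and were taken 13 days after spraying. Plants had been raised in pots for 8 days under glasshouse control (24/16 °C, 14 h photoperiod, 65% humidity) and then treated at 15.625, 62.5 or 250 g/ha.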

[2] = tested on: velvetleaf (Abutilon theophrasti); test: Test G Post-Emergence Protocol; conditions: Abutilon theophrasti, post-emergence, 312 h; for pest or weed control at 15.625 g/ha: 15.625 g ai/ha, evaluated after 13 days (100=total damage to plant; 0=no damage to plant), read-out: Velvetleaf damage rating; for pest or weed control at 62.5 g/ha: 62.5 g ai/ha, read-out: Velvetleaf damage rating (100=total damage to plant; 0=no damage to plant); for pest or weed control at 62.5 g/ha / pest or weed control at 250 g/ha: evaluated after 13 days; for pest or weed control at 250 g/ha: 250 g ai/ha, read-out: damage to plant, Velvetleaf (100=total damage to plant; 0=no damage to plant)
Outline: as §1

[3] = tested on: redroot pigweed (Amaranthus retroflexus); test: Test G Post-Emergence Protocol; conditions: Amaranthus retroflexus, post-emergence, 312 h; for pest or weed control at 15.625 g/ha: 15.625 g ai/ha, evaluated after 13 days (100=total damage to plant; 0=no damage to plant), read-out: Pigweed, Redroot damage rating; for pest or weed control at 62.5 g/ha: 62.5 g ai/ha, read-out: Pigweed, Redroot damage rating (100=total damage to plant; 0=no damage to plant); for pest or weed control at 62.5 g/ha / pest or weed control at 250 g/ha: evaluated after 13 days; for pest or weed control at 250 g/ha: 250 g ai/ha, read-out: damage to plant, Pigweed, Redroot (100=total damage to plant; 0=no damage to plant)
Outline: as §1

[4] = tested on: barnyardgrass (Echinochloa crus-galli); test: Test G Post-Emergence Protocol; conditions: Echinochloa crus-galli, post-emergence, 312 h; for pest or weed control at 15.625 g/ha: 15.625 g ai/ha, evaluated after 13 days (100=total damage to plant; 0=no damage to plant), read-out: Barnyardgrass damage rating; for pest or weed control at 62.5 g/ha: 62.5 g ai/ha, read-out: Barnyardgrass damage rating (100=total damage to plant; 0=no damage to plant); for pest or weed control at 62.5 g/ha / pest or weed control at 250 g/ha: evaluated after 13 days; for pest or weed control at 250 g/ha: 250 g ai/ha, read-out: damage to plant, Barnyardgrass (100=total damage to plant; 0=no damage to plant)
Outline: as §1

corn (Zea mays) [5] = test: Test G Post-Emergence Protocol; conditions: Zea mays, post-emergence, 312 h; for plant injury at 15.625 g/ha: 15.625 g ai/ha, evaluated after 13 days (100=total damage to plant; 0=no damage to plant), read-out: Corn damage rating; for plant injury at 62.5 g/ha: 62.5 g ai/ha, read-out: Corn damage rating (100=total damage to plant; 0=no damage to plant); for plant injury at 62.5 g/ha / plant injury at 250 g/ha: evaluated after 13 days; for plant injury at 250 g/ha: 250 g ai/ha, read-out: damage to plant, Corn (100=total damage to plant; 0=no damage to plant)
Outline: as §1

[6] = tested on: ivy-leaved morning glory (Ipomoea hederacea); test: Test G Post-Emergence Protocol; conditions: Ipomoea, post-emergence, 312 h; for pest or weed control at 15.625 g/ha: 15.625 g ai/ha, evaluated after 13 days (100=total damage to plant; 0=no damage to plant), read-out: Morningglory, Ivy-leaved damage rating; for pest or weed control at 62.5 g/ha: 62.5 g ai/ha, read-out: Morningglory, Ivy-leaved damage rating (100=total damage to plant; 0=no damage to plant); for pest or weed control at 62.5 g/ha / pest or weed control at 250 g/ha: evaluated after 13 days; for pest or weed control at 250 g/ha: 250 g ai/ha, read-out: damage to plant, Morningglory, Ivy-leaved (100=total damage to plant; 0=no damage to plant)
Outline: as §1

[7] = tested on: giant foxtail (Setaria faberi); test: Test G Pre-Emergence Protocol; conditions: Setaria faberi, pre-emergence, 312 h, evaluated after 13 days; for pest or weed control at 15.625 g/ha: 15.625 g ai/ha; for pest or weed control at 15.625 g/ha / pest or weed control at 250 g/ha: read-out: Foxtail, Giant damage rating (100=total damage to plant; 0=no damage to plant); for pest or weed control at 62.5 g/ha: 62.5 g ai/ha, 100=total damage to plant, 0=no damage to plant, read-out: plant damage rating, Foxtail, Giant; for pest or weed control at 250 g/ha: 250 g ai/ha
Outline: (§2)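 Spraying took place one day after sowing, at 15.625, 62.5 or 250 g/ha, using an acetone/water (50:50) spray solution containing 0.5% Tween 20. Plants were kept under glasshouse conditions (24/16 °C, 14 h light, 65% humidity, watered twice daily), and injury was rated 0–100 at day 13.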

[8] = tested on: velvetleaf (Abutilon theophrasti); test: Test G Pre-Emergence Protocol; conditions: Abutilon theophrasti, pre-emergence, 312 h, evaluated after 13 days; for pest or weed control at 15.625 g/ha: 15.625 g ai/ha; for pest or weed control at 15.625 g/ha / pest or weed control at 250 g/ha: read-out: Velvetleaf damage rating (100=total damage to plant; 0=no damage to plant); for pest or weed control at 62.5 g/ha: 62.5 g ai/ha, 100=total damage to plant, 0=no damage to plant, read-out: plant damage rating, Velvetleaf; for pest or weed control at 250 g/ha: 250 g ai/ha
Outline: as §2

[9] = tested on: redroot pigweed (Amaranthus retroflexus); test: Test G Pre-Emergence Protocol; conditions: Amaranthus retroflexus, pre-emergence, 312 h, evaluated after 13 days; for pest or weed control at 15.625 g/ha: 15.625 g ai/ha; for pest or weed control at 15.625 g/ha / pest or weed control at 250 g/ha: read-out: Pigweed, Redroot damage rating (100=total damage to plant; 0=no damage to plant); for pest or weed control at 62.5 g/ha: 62.5 g ai/ha, 100=total damage to plant, 0=no damage to plant, read-out: plant damage rating, Pigweed, Redroot; for pest or weed control at 250 g/ha: 250 g ai/ha
Outline: as §2

[10] = tested on: barnyardgrass (Echinochloa crus-galli); test: Test G Pre-Emergence Protocol; conditions: Echinochloa crus-galli, pre-emergence, 312 h, evaluated after 13 days; for pest or weed control at 15.625 g/ha: 15.625 g ai/ha, read-out: Barnyard grass damage rating (100=total damage to plant; 0=no damage to plant); for pest or weed control at 62.5 g/ha: 62.5 g ai/ha, 100=total damage to plant, 0=no damage to plant, read-out: plant damage rating, Barnyardgrass; for pest or weed control at 250 g/ha: 250 g ai/ha, read-out: Barnyardgrass damage rating (100=total damage to plant; 0=no damage to plant)
Outline: as §2

corn (Zea mays) [11] = test: Test G Pre-Emergence Protocol; conditions: Zea mays, pre-emergence, 312 h, evaluated after 13 days; for plant injury at 15.625 g/ha: 15.625 g ai/ha; for plant injury at 15.625 g/ha / plant injury at 250 g/ha: read-out: Corn damage rating (100=total damage to plant; 0=no damage to plant); for plant injury at 62.5 g/ha: 62.5 g ai/ha, 100=total damage to plant, 0=no damage to plant, read-out: plant damage rating, Corn; for plant injury at 250 g/ha: 250 g ai/ha
Outline: as §2

[12] = tested on: ivy-leaved morning glory (Ipomoea hederacea); test: Test G Pre-Emergence Protocol; conditions: Ipomoea, pre-emergence, 312 h, evaluated after 13 days; for pest or weed control at 15.625 g/ha: 15.625 g ai/ha, read-out: Morning-glory, Ivy-leaved damage rating (100=total damage to plant; 0=no damage to plant); for pest or weed control at 62.5 g/ha: 62.5 g ai/ha, 100=total damage to plant, 0=no damage to plant, read-out: plant damage rating, Morningglory, Ivy-leaved; for pest or weed control at 250 g/ha: 250 g ai/ha, read-out: Morningglory, Ivy-leaved damage rating (100=total damage to plant; 0=no damage to plant)
Outline: as §2

CN1C[C@@H](c2ccc(C(F)(F)F)cc2)[C@H](C(=O)Nc2cc(C(F)(F)F)no2)C1=O (racemic) [Compound 1511]
0%: pest or weed control at 15.625 g/ha [1] | pest or weed control at 62.5 g/ha [1] | pest or weed control at 250 g/ha [1] | pest or weed control at 15.625 g/ha [2] | pest or weed control at 62.5 g/ha [2] | pest or weed control at 250 g/ha [2] | pest or weed control at 15.625 g/ha [3] | pest or weed control at 62.5 g/ha [3] | pest or weed control at 250 g/ha [3] | pest or weed control at 15.625 g/ha [4] | pest or weed control at 62.5 g/ha [4] | pest or weed control at 250 g/ha [4] | plant injury at 15.625 g/ha (corn (Zea mays) [5]) | plant injury at 62.5 g/ha (corn (Zea mays) [5]) | plant injury at 250 g/ha (corn (Zea mays) [5]) | pest or weed control at 15.625 g/ha [6] | pest or weed control at 62.5 g/ha [6] | pest or weed control at 250 g/ha [6] | pest or weed control at 15.625 g/ha [7] | pest or weed control at 62.5 g/ha [7] | pest or weed control at 250 g/ha [7] | pest or weed control at 15.625 g/ha [8] | pest or weed control at 62.5 g/ha [8] | pest or weed control at 250 g/ha [8] | pest or weed control at 15.625 g/ha [9] | pest or weed control at 62.5 g/ha [9] | pest or weed control at 250 g/ha [9] | pest or weed control at 15.625 g/ha [10] | pest or weed control at 62.5 g/ha [10] | pest or weed control at 250 g/ha [10] | plant injury at 15.625 g/ha (corn (Zea mays) [11]) | plant injury at 62.5 g/ha (corn (Zea mays) [11]) | plant injury at 250 g/ha (corn (Zea mays) [11]) | pest or weed control at 15.625 g/ha [12] | pest or weed control at 62.5 g/ha [12] | pest or weed control at 250 g/ha [12]

CSc1nccc(NC(=O)[C@@H]2C(=O)N(C)C[C@H]2c2ccc(C(F)(F)F)cc2)n1 (racemic) [Compound 1516]
0%: pest or weed control at 15.625 g/ha [1] | pest or weed control at 62.5 g/ha [1] | pest or weed control at 250 g/ha [1] | pest or weed control at 15.625 g/ha [2] | pest or weed control at 62.5 g/ha [2] | pest or weed control at 250 g/ha [2] | pest or weed control at 15.625 g/ha [3] | pest or weed control at 62.5 g/ha [3] | pest or weed control at 250 g/ha [3] | pest or weed control at 15.625 g/ha [4] | pest or weed control at 62.5 g/ha [4] | pest or weed control at 250 g/ha [4] | plant injury at 15.625 g/ha (corn (Zea mays) [5]) | plant injury at 62.5 g/ha (corn (Zea mays) [5]) | plant injury at 250 g/ha (corn (Zea mays) [5]) | pest or weed control at 15.625 g/ha [6] | pest or weed control at 62.5 g/ha [6] | pest or weed control at 250 g/ha [6] | pest or weed control at 15.625 g/ha [7] | pest or weed control at 62.5 g/ha [7] | pest or weed control at 250 g/ha [7] | pest or weed control at 15.625 g/ha [8] | pest or weed control at 62.5 g/ha [8] | pest or weed control at 250 g/ha [8] | pest or weed control at 15.625 g/ha [9] | pest or weed control at 62.5 g/ha [9] | pest or weed control at 250 g/ha [9] | pest or weed control at 15.625 g/ha [10] | pest or weed control at 62.5 g/ha [10] | pest or weed control at 250 g/ha [10] | plant injury at 15.625 g/ha (corn (Zea mays) [11]) | plant injury at 62.5 g/ha (corn (Zea mays) [11]) | plant injury at 250 g/ha (corn (Zea mays) [11]) | pest or weed control at 15.625 g/ha [12] | pest or weed control at 62.5 g/ha [12] | pest or weed control at 250 g/ha [12]
